Data from US4497809A, “Cephalosporin derivatives” (Takeda Chemical Industries, Ltd., priority 1982, dated 1985).

How the values were obtained:
[1] = in vivo; design: species or system mouse (male SLC-ICR mice); conditions: mouse; for Bioavailability / AUC (area under plasma-concentration curve of non-ester form, 0 to 2 hr): 100 mg/kg; for AUC (area under plasma-concentration curve of non-ester form, 0 to 2 hr): po
Protocol: Test compounds: compounds obtained in examples 6, 8, 10, 13, 14, 16, 21, 23 and compound for control: pivaloyloxymethyl 7β-[2-(2-aminothiazol-4-yl)acetamido]-3-[[[1-(2-dimethylaminoethyl)-1H-tetrazol-5-yl]thio]methyl]-ceph-3-em-4-carboxylate (This will be referred to simply "compound A" hereinafter).
Male SLC-ICR mice (4 weeks old) were starved but under free access to drinking water for 16-18 hr. period to the experiments. The test compound was administered orally by intubation as an aqueous solution with 2.5 equimolar of tartaric acid at a dose of 100 mg/kg as non-ester form of the Compound I, to a group of four mice. […] The concentration of the non-ester form of the Compound I in the plasma was measured by the cylinder-plate method using Proteus mirabilis ATCC 21100 as an assay organism.
Control test: an aqueous solution of non-ester form of the Compound I in an amount of 10 ml water/Kg mouse body weight, was subcutaneously applied and AUC was calculated in the same manner as above.
Area under plasma-concentration curve (AUC) for 0 to 2 hr. after
administration was calculated by the trapezoidal rule.

[2] = test system: gram-negative bacteria (e.g., Escherichia coli, Klebsiella pneumonia, Proteus vulgaris, Proteus mirabilis, Proteus morganii); assay: Antibacterial activity against gram-negative bacteria; type: cell-based; conditions: in words
[3] = test system: gram-positive bacteria (e.g., Staphylococcus aureus); assay: Antibacterial activity against gram-positive bacteria; type: cell-based; conditions: in words

Bioavailability ([1]; 120 min) [%] | AUC (area under plasma-concentration curve of non-ester form, 0 to 2 hr) ([1]; 120 min) [ng·h/mL] | AUC at 2 h ([1]; sc) [ng·h/mL] | Bioavailability, control ([1]; sc, 120 min) [%] | SMILES | antibacterial activity against gram-negative bacteria [2] | antibacterial activity against gram-positive bacteria [3]
52.8 | 20500 |  |  | CC(C)CCC(=O)OC(C)OC(=O)C1=C(CSc2nnnn2CCN(C)C)CS[C@@H]2[C@H](NC(=O)Cc3csc(N)n3)C(=O)N12 (stereo partly drawn) [Example 8, 1-(4-methylpentanoyloxy)ethyl 7β-[2-(2-aminothiazol-4-yl)acetamido]-3-[[[1-(2-dimethylaminoethyl)-1H-tetrazol-5-yl]thio]methyl]ceph-3-em-4-carboxylate] |  | 
93.2 | 36200 |  |  | CCC(C)CC(=O)OC(C)OC(=O)C1=C(CSc2nnnn2CCN(C)C)CS[C@@H]2[C@H](NC(=O)Cc3csc(N)n3)C(=O)N12 (stereo partly drawn) [Example 10, 1-(3-methylpentanoyloxy)ethyl 7β-[2-(2-aminothiazol-4-yl)acetamido]-3-[[[1-(2-dimethylaminoethyl)-1H-tetrazol-5-yl]-thio]methyl]ceph-3-em-4-carboxylate] |  | 
60.6 | 23500 |  |  | CCCCCCCC(=O)OC(C)OC(=O)C1=C(CSc2nnnn2CCN(C)C)CS[C@@H]2[C@H](NC(=O)Cc3csc(N)n3)C(=O)N12 (stereo partly drawn) [Example 13, 1-(n-octanoyloxy)ethyl 7β-[2-(2-aminothiazol-4-yl)acetamido]-3-[[[1-(2-dimethylaminoethyl)-1H-tetrazol-5-yl]thio]methyl]ceph-3-em-4-carboxylate] |  | 
100.0 | 38800 |  |  | CCC(CC)C(=O)OC(C)OC(=O)C1=C(CSc2nnnn2CCN(C)C)CS[C@@H]2[C@H](NC(=O)Cc3csc(N)n3)C(=O)N12 (stereo partly drawn) [Example 21, 1-(2-ethylbutyryloxy)ethyl 7β-[2-(2-aminothiazol-4-yl)acetamido]-3-[[[1-(2-dimethylaminoethyl)-1H-tetrazol-5-yl]thio]methyl]ceph-3-em-4-carboxylate] |  | 
 |  | 38800 | 100 | CN(C)CCn1nnnc1SCC1=C(C(=O)O)N2C(=O)[C@@H](NC(=O)Cc3csc(N)n3)[C@H]2SC1 [non-ester form of Compound I, 7β-[2-(2-aminothiazol-4-yl)acetamido]-3-[[[1-(2-dimethylaminoethyl)-1H-tetrazol-5-yl]thio]methyl]ceph-3-em-4-carboxylic acid, reference compound] | excellent antibacterial activity | excellent antibacterial activity

Further lines, the compound ahead of its results:

SMILES | Bioavailability ([1]; 120 min) [%] | AUC (area under plasma-concentration curve of non-ester form, 0 to 2 hr) ([1]; 120 min) [ng·h/mL] | AUC at 2 h ([1]; sc) [ng·h/mL] | Bioavailability, control ([1]; sc, 120 min) [%] | antibacterial activity against gram-negative bacteria [2] | antibacterial activity against gram-positive bacteria [3]
CN(C)CCn1nnnc1SCC1=C(C(=O)OCOC(=O)C(C)(C)C)N2C(=O)[C@@H](NC(=O)Cc3csc(N)n3)[C@H]2SC1 [Compound A, pivaloyloxymethyl 7β-[2-(2-aminothiazol-4-yl)acetamido]-3-[[[1-(2-dimethylaminoethyl)-1H-tetrazol-5-yl]thio]methyl]-ceph-3-em-4-carboxylate, reference compound] | 41.8 |  |  |  |  | 
CCCCCC(=O)OC(C)OC(=O)C1=C(CSc2nnnn2CCN(C)C)CS[C@@H]2[C@H](NC(=O)Cc3csc(N)n3)C(=O)N12 (stereo partly drawn) [Example 6, 1-(n-hexanoyloxy)ethyl 7β-[2-(2-aminoethiazol-4-yl)acetamido]-3-[[[1-(2-dimethylaminoethyl)-1H-tetrazol-5-yl]thio]methyl]ceph-3-em-4-carboxylate] | 67.5 | 26200 |  |  |  | 
CCCC(CCC)C(=O)OC(C)OC(=O)C1=C(CSc2nnnn2CCN(C)C)CS[C@@H]2[C@H](NC(=O)Cc3csc(N)n3)C(=O)N12 (stereo partly drawn) [Example 14, 1-(2-n-propylpentanoyloxy)ethyl 7β-[2-(2-aminothiazol-4-yl)acetamido]-3-[[[1-(2-dimethylaminoethyl)-1H-tetrazol-5-yl)thio]methyl]ceph-3-em-4-carboxylate] | 66.0 | 25600 |  |  |  | 
CCCCCC(=O)OC(CC)OC(=O)C1=C(CSc2nnnn2CCN(C)C)CS[C@@H]2[C@H](NC(=O)Cc3csc(N)n3)C(=O)N12 (stereo partly drawn) [Example 16, 1-(n-hexanoyloxy)propyl 7β-[2-(2-aminothiazol-4-yl)acetamido]-3-[[[1-(2-dimethylaminoethyl)-1H-tetrazol-5-yl]thio]methyl]ceph-3-em-4-carboxylate] | 65.0 | 25200 |  |  |  | 
CCC(CC)CC(=O)OC(C)OC(=O)C1=C(CSc2nnnn2CCN(C)C)CS[C@@H]2[C@H](NC(=O)Cc3csc(N)n3)C(=O)N12 (stereo partly drawn) [Example 23, 1-(3-ethylpentanoyloxy)ethyl 7β-[2-(2-aminothiazol-4-yl)acetamido]-3-[[[1-(2-dimethylaminoethyl)-1H-tetrazol-5-yl]thio]methyl]ceph-3-em-4-carboxylate] | 78.2 | 30300 |  |  |  | 
